Assay results from ChEMBL document CHEMBL1145107, “Peptide science: exploring the use of chemical principles and interdisciplinary collaboration for understanding life processes” (J Med Chem, 2003).
*1 amine or outer side, *2 acyl side, *3 side chain or, on linkers, in order; H or OH if unused. Where a SMILES comes first, the peptide text is derived from it. [ ]: non-standard residue; d: D form. X1 = Cc1cc(O)cc(C)c1[C@H](C)[C@@H](N[*:1])C(=O)[*:2]; X3 = Cc1cc(O)cc(C)c1[C@@H](C)[C@H](N[*:1])C(=O)[*:2]; Pen = CC(C)(S)[C@H](N)C(=O)O

Columns and labels:
[1] = target: T1, Oxytocin receptor (Homo sapiens, UniProt P30559); test: Binding affinity towards oxytocin receptor
T1 sequence (P30559 whole entry): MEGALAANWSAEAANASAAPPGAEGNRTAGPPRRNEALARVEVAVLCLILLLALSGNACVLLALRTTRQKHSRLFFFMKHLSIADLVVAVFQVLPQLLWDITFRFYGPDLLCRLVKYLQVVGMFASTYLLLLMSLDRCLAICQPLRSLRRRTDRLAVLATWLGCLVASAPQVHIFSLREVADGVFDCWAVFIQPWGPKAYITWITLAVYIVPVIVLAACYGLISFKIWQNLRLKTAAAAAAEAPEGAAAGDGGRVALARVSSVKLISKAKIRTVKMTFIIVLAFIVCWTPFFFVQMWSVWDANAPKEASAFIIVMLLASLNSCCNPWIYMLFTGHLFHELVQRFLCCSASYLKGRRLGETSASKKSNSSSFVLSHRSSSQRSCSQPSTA

[2] = test system: Anolis carolinensis; test: Biological activity using the lizard skin (Anolis carolinensis) assay. The value indicates no prolonged biological activity; format: functional, organism-based
[3] = Biological activity using the frog skin (Rana pipiens) assay. The value indicates no prolonged biological activity; format: functional
[4] = target: Mu-type opioid receptor (Cavia porcellus) (UniProt P97266); test: In vitro bioassay data to determine the effective concentration required for antagonistic activity against Opioid receptor mu 1 in functional assay, GPI at a concentration of 60 uM; set-up: scale not given: the % may be the effect or the level left
Mu-type opioid receptor (Cavia porcellus), sequence (P97266 whole entry): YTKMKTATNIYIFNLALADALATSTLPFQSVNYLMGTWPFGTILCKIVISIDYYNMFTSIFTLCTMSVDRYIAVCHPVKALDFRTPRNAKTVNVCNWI

[5] = target: T2, Mu-type opioid receptor (Homo sapiens, UniProt P35372); test: (§1) Binding affinity towards Opioid receptor mu 1 using [3H]- CTOP as radioligand
T2 sequence (P35372 whole entry): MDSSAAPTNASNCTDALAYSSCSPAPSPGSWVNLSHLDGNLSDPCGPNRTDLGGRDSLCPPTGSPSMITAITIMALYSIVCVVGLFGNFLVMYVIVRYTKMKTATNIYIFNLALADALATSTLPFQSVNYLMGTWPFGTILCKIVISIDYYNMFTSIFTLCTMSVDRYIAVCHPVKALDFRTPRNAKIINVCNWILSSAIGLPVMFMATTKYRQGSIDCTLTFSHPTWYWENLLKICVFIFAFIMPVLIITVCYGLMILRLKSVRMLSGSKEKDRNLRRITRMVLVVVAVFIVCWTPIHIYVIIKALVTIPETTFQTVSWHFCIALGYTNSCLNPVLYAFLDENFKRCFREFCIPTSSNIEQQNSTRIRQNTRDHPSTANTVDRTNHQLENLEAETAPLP

[6] = target: Delta-type opioid receptor (Rattus norvegicus, UniProt P33533); test: Binding affinity towards Opioid receptor delta 1 using [3H]- [p-CIPhe4] DPDPE as radioligand
Delta-type opioid receptor (Rattus norvegicus, UniProt P33533), sequence (P33533 whole entry): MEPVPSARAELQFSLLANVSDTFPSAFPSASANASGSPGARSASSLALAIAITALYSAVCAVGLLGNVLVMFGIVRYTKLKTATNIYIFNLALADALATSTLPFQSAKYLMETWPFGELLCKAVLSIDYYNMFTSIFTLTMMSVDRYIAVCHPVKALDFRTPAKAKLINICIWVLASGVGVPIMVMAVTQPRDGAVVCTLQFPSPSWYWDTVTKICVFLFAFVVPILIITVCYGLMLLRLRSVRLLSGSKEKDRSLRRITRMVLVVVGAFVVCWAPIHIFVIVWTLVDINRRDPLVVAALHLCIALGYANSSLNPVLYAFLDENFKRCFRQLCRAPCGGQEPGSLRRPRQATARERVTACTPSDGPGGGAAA

[7] = target: Delta-type opioid receptor (Mus musculus, UniProt P32300); test: In vitro bioassay data to determine the effective concentration required for antagonistic activity against Opioid receptor delta 1 in functional assay, MVD
Delta-type opioid receptor (Mus musculus, UniProt P32300), sequence (P32300 whole entry): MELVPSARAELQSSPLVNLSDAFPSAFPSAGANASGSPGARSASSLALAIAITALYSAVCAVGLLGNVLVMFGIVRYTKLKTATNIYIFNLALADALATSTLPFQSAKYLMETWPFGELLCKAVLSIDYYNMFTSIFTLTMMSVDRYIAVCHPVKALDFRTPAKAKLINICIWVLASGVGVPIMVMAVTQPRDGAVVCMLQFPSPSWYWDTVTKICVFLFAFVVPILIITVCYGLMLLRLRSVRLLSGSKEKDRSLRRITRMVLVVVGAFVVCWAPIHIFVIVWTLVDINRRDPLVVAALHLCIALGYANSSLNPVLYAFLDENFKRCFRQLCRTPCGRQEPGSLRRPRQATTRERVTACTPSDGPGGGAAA

[8] = target: Mu-type opioid receptor (Cavia porcellus, UniProt P97266); test: In vitro bioassay data to determine the effective concentration required for antagonistic activity against Opioid receptor mu 1 in functional assay, GPI
Mu-type opioid receptor (Cavia porcellus, UniProt P97266), sequence (P97266 whole entry): as the sequence (P97266 whole entry) above

[9] = target: T2, Mu-type opioid receptor; test: as §1; remark: listed apart in the source
[10] = target: Mu-type opioid receptor (Cavia porcellus) (UniProt P97266); test: In vitro bioassay data to determine the effective concentration required for antagonistic activity against Opioid receptor mu 1 in functional assay, GPI at a concentration of 82 uM; set-up: scale not given: the % may be the effect or the level left

CC[C@H](C)[C@@H]1NC(=O)[C@H](Cc2ccc(O)cc2)NC(=O)[C@H](N)C(C)(C)SSC[C@@H]2NC(=O)[C@H](CC(N)=O)NC(=O)[C@H](CCC(=O)NCCCC[C@@H](C(=O)NCC(N)=O)NC(=O)[C@@H]3CCCN3C2=O)NC1=O
IC50 [1]: 130 nM

CCCC[C@H](NC(C)=O)C(=O)N[C@H]1CC(=O)NCCCC[C@@H](C(N)=O)NC(=O)[C@H]([C@H](C)c2c[nH]c3ccccc23)NC(=O)[C@H](CCCN=C(N)N)NC(=O)[C@@H](Cc2ccccc2)NC(=O)[C@H](Cc2c[nH]cn2)NC1=O
EC50 [2]: 6.7 nM | EC50 [3]: 29 nM

CC[C@H](C)[C@@H]1NC(=O)[C@@H]([C@@H](C)c2c(C)cc(OC)cc2C)NC(=O)[C@H](N)C(C)(C)SSC[C@@H]2NC(=O)[C@@H](CC(N)=O)NC(=O)[C@@H](CCC(=O)NCCCC[C@H](C(=O)NCC(N)=O)NC(=O)[C@H]3CCCN3C2=O)NC1=O
IC50 [1]: 36000 nM

CC[C@H](C)[C@@H]1NC(=O)[C@H]([C@H](C)c2c(C)cc(OC)cc2C)NC(=O)[C@H](N)C(C)(C)SSC[C@@H]2NC(=O)[C@@H](CC(N)=O)NC(=O)[C@@H](CCC(=O)NCCCC[C@H](C(=O)NCC(N)=O)NC(=O)[C@H]3CCCN3C2=O)NC1=O
IC50 [1]: 19000 nM

CC[C@H](C)[C@@H]1NC(=O)[C@@H]([C@H](C)c2c(C)cc(OC)cc2C)NC(=O)[C@H](N)C(C)(C)SSC[C@@H]2NC(=O)[C@H](CC(N)=O)NC(=O)[C@H](CCC(=O)NCCCC[C@@H](C(=O)NCC(N)=O)NC(=O)[C@@H]3CCCN3C2=O)NC1=O
IC50 [1]: 160 nM

CCCC[C@H](NC(C)=O)C(=O)N[C@H]1CC(=O)NC[C@@H](C(N)=O)NC(=O)[C@H](Cc2c[nH]c3ccccc23)NC(=O)[C@H](CCCN=C(N)N)NC(=O)[C@@H](Cc2ccccc2)NC(=O)[C@H](Cc2c[nH]cn2)NC1=O
EC50 [2]: 0.2 nM | EC50 [3]: 50 nM

Cc1cc(O)cc(C)c1[C@@H](C)[C@H](N)C(=O)N[C@H](C(=O)NCC(=O)N[C@@H](Cc1ccccc1)C(=O)N[C@H](C(=O)O)C(C)(C)S)C(C)(C)S (H-[X3][Pen]GF[Pen]-OH)
Activity [4]: 0%

Cc1cc(O)cc(C)c1[C@@H](C)[C@@H](N)C(=O)N[C@H]1C(=O)NCC(=O)N[C@@H](Cc2ccccc2)C(=O)N[C@@H](C(=O)O)C(C)(C)SSC1(C)C
IC50 [5]: 77000 nM | IC50 [6]: 3500 nM | EC50 [7]: 2200 nM | EC50 [8]: 50000 nM

Cc1cc(O)cc(C)c1[C@H](C)[C@@H](N)C(=O)N[C@H](C(=O)NCC(=O)N[C@@H](Cc1ccccc1)C(=O)N[C@H](C(=O)O)C(C)(C)S)C(C)(C)S (H-[X1][Pen]GF[Pen]-OH)
Activity [9]: 0% | Activity [10]: 75%

CC[C@H](C)[C@@H]1NC(=O)[C@H]([C@@H](C)c2c(C)cc(OC)cc2C)NC(=O)[C@H](N)C(C)(C)SSC[C@@H]2NC(=O)[C@H](CC(N)=O)NC(=O)[C@H](CCC(=O)NCCCC[C@@H](C(=O)NCC(N)=O)NC(=O)[C@@H]3CCCN3C2=O)NC1=O
IC50 [1]: 8 nM

Cc1cc(O)cc(C)c1[C@@H](C)[C@H](N)C(=O)N[C@H]1C(=O)NCC(=O)N[C@@H](Cc2ccccc2)C(=O)N[C@@H](C(=O)O)C(C)(C)SSC1(C)C
IC50 [5]: 4300 nM

CCCC[C@H](NC(C)=O)C(=O)N[C@H]1CC(=O)NCCC[C@@H](C(N)=O)NC(=O)[C@H](Cc2c[nH]c3ccccc23)NC(=O)[C@H](CCCN=C(N)N)NC(=O)[C@@H](Cc2ccccc2)NC(=O)[C@H](Cc2c[nH]cn2)NC1=O
EC50 [2]: 0.05 nM | EC50 [3]: 0.5 nM

Cc1cc(O)cc(C)c1[C@H](C)[C@H](N)C(=O)N[C@H]1C(=O)NCC(=O)N[C@@H](Cc2ccccc2)C(=O)N[C@@H](C(=O)O)C(C)(C)SSC1(C)C
IC50 [5]: 720 nM | IC50 [6]: 210 nM

CCCC[C@H](NC(C)=O)C(=O)N[C@H]1CC(=O)NCC[C@@H](C(N)=O)NC(=O)[C@H](Cc2c[nH]c3ccccc23)NC(=O)[C@H](CCCN=C(N)N)NC(=O)[C@@H](Cc2ccccc2)NC(=O)[C@H](Cc2c[nH]cn2)NC1=O
EC50 [2]: 0.2 nM | EC50 [3]: 0.5 nM
